# Source: patent US9241962B2, “Water extract of Antrodia camphorata for immunostimulatory effect and preparation method thereof” (Kaohsiung Medical University, priority 2009, dated 2016)
# Legend:
# Type in all cases: cell-based, human
# [1] = system: DCs; assay: Inhibition of MAPKs and PI3K/Akt activation before ACW stimulation of DCs; conditions: inhibitor 25 μM for 2 hours before ACW; for IL-12 production of DCs induced by ACW after inhibitor pretreatment: FIG. 13(B)
# Description: To examine the signal transduction pathways involved in the effects of ACW on DC maturation, DCs were pretreated at 37° C. with ERK inhibitor PD98059 (25 μM), JNK inhibitor SP600125 (25 μM), p38 MAPK inhibitor SB203580 (25 μM) or PI3K/Akt inhibitor LY294002 (25 μM) for 2 hours before stimulation with ACW. After 2 days, phenotyping characteristics of DCs and IL-12 production in the supernatants of DCs were analyzed.
# [2] = system: DCs; assay: Polymyxin B test of CD86 and HLA-DR expression on induced DCs; conditions: DCs treated with polymyxin B, then LPS or ACW; FIG. 7
# Description: Polymyxin B is an antibiotic used for inactivating potential LPS contamination when evaluating the activity of different agents on immune cells. Therefore, whether polymyxin B blocks the phenotypic maturation of ACW-induced DCs is determined. […] Accordingly, ACW is able to stimulate the maturation of DCs without LPS contamination.
# [3] = system: DCs; assay: IL-12 production in culture supernatants of stimulated DCs; design: unit not given here; conditions: LPS; PBS 235.53±2.54; FIG. 9
# Description: The preparation method of DCs was mainly prepared and modified from Lin et al, 2006. First, peripheral blood mononuclear cells (PBMCs) were obtained from 12 healthy donors by centrifugation with the Ficoll-Hypaque (Amersham Bioscience, Uppsala, Sweden) density gradient centrifugation. PBMCs were cultured in RPMI 1640 medium supplemented with 10% fetal calf serum, 1 mM L-glutamin, 100 μg/ml streptomycin and 100 U/ml penicillin for 2 hours. The nonadherent cells were removed, and the T cells were purified by nylon wool separation, as the source of mononuclear T lymphocytes. T cells were loaded into the column and the eluted nonadherent cell fraction was rich in T cells. As determined by FACS, the resulting cell population was 80% T cells with a high expression of CD3. The adherent cells were cultured for 6 days in RPMI 1640 medium with 50 ng/ml of granulocyte-macrophage colony-stimulating factor (GM-CSF) and interleukin-4 (IL-4). […] ImDCs were further treated with phosphate buffered saline (PBS), LPS (100 ng/ml) and different doses of ACW for an additional 2 days and then assessed by flow cytometry.
# Levels of IL-12, IL-10, IFN-γ and IL-4 in the culture supernatants from DCs or T cells were evaluated by using highly sensitive human cytokine assay kits (R&D Systems, Minneapolis, USA) according to the manufacturer's instructions.
Compound,IL-12 production of DCs induced by ACW after inhibitor pretreatment [1],CD86 expression of the ACW-treated DCs after inhibitor pretreatment ([1]; FIG. 13(A)),expressions of CD86 and HLA-DR after polymyxin B treatment in advance [2],concentration of IL-12 produced by DCs [3]
COc1cccc(-c2cc(=O)c3ccccc3o2)c1N [PD98059],upregulates the IL-12 production,–,–,–
C[S+]([O-])c1ccc(-c2nc(-c3ccncc3)c(-c3ccc(F)cc3)[nH]2)cc1 (centres unmarked) [SB203580],significantly blocks the up-regulation of IL-12 production,inhibit CD86 expression,–,–
lipopolysaccharide [LPS],–,–,significantly inhibits the expressions of CD86 and HLA-DR,698.45
